Experimental findings from patent US7625890B2, “Substituted imidazo[4,5-c]pyridine compounds as Akt inhibitors” (SmithKline Beecham Corp., priority 2005, dated 2009) are described below.

Values after ≈ are worked out from the molar mass of the structure shown. Structures can show the parent of a compound that is named as a salt.

The nature of the data set: Solubility. To be noted: for solubility: aqueous buffer, 50 mM phosphate buffer, pH 7.4; for solubility, suitability for IV dosage forms: statement in words. The format is physicochemical.

What is called solubility is the concentration that dissolves in the medium under given conditions. Low values mean a poorly soluble substance, high ones a readily soluble substance. As for `CCn1c(-c2nonc2N)nc2c(C#CC(C)(C)O)ncc(OCC3CCNC3)c21` (centres unmarked) [Example 5, 4-{2-(4-amino-1,2,5-oxadiazol-3-yl)-1-ethyl-7-[(3-Pyrrolidinylmethyl)oxy]-1H-imidazo[4,5-c]pyridin-4-yl}-2-methyl-3-butyn-2-ol, bis-trifluoroacetic acid salt], the solubility was found to be 83 µM.
On to `CCN1CCO[C@H](COc2cnc(C#CC(C)(C)O)c3nc(-c4nonc4N)n(CC)c23)C1` [Example 10, 4-[2-(4-amino-1,2,5-oxadiazol-3-yl)-1-ethyl-7-({[(2S)-4-ethyl-2-morpholinyl]methyl}oxy)-1H-imidazo[4,5-c]pyridin-4-yl]-2-methyl-3-butyn-2-ol], for which the solubility amounted to 6 µM (≈ 2.73 µg/mL).
In the case of `CCn1c(-c2nonc2N)nc2c(C#CC(C)(C)O)ncc(OCC3CNCC(C)O3)c21` (stereo in doubt) [Example 9, 4-[2-(4-amino-1,2,5-oxadiazol-3-yl)-1-ethyl-7-({[(2R)-6-methyl-2-morpholinyl]methyl}oxy)-1H-imidazo[4,5-c]pyridin-4-yl]-2-methyl-3-butyn-2-ol, dihydrochloride], the solubility turned out to be 129 µM and the “solubility, suitability for IV dosage forms” value is given as “suitable for formulation into dosage forms for IV administration”.
Taken in the same sequence, the figures for `CCn1c(-c2nonc2N)nc2c(C#CC(C)(C)O)ncc(OC[C@@H]3CNCCS3)c21` (single isomer, unassigned; enantiomer e1) [Example 3, 4-{2-(4-amino-1,2,5-oxadiazol-3-yl)-1-ethyl-7-[(2-thiomorpholinylmethyl)oxy]-1H-imidazo[4,5-c]pyridin-4-yl}-2-methyl-3-butyn-2-ol dihydrochloride (enantiomer E1)] were 110 µM and “suitable for formulation into dosage forms for IV administration”.
On to `CCn1c(-c2nonc2N)nc2c(C#CC(C)(C)O)ncc(OC[C@H]3CNCCO3)c21` [Example 2, 4-(2-(4-amino-1,2,5-oxadiazol-3-yl)-1-ethyl-7-{[(2R)-2-morpholinylmethyl]oxy}-1H-imidazo[4,5-c]pyridin-4-yl)-2-methyl-3-butyn-2-ol dihydrochloric acid salt], for which the solubility was 188 µM.
Consider `CCn1c(-c2nonc2N)nc2c(C#CC(C)(C)O)ncc(OC[C@@H]3CNCCO3)c21` [Example 4, 4-(2-(4-amino-1,2,5-oxadiazol-3-yl)-1-ethyl-7-{[(2S)-2-morpholinylmethyl]oxy}-1H-imidazo[4,5-c]pyridin-4-yl)-2-methyl-3-butyn-2-ol], for which the solubility was found to be 154 µM (≈ 65.8 µg/mL) and the “solubility, suitability for IV dosage forms” value is “suitable for formulation into dosage forms for IV administration”.
Taken in the same sequence, the figures for `CCn1c(-c2nonc2N)nc2c(C#CC(C)(C)O)ncc(OC[C@H]3CCCNC3)c21` [Example 1, 4-(2-(4-amino-1,2,5-oxadiazol-3-yl)-1-ethyl-7-{[(3S)-3-Piperidinylmethyl]oxy}-1H-imidazo[4,5-c]pyridin-4-yl)-2-methyl-3-butyn-2-ol] were 210 µM (≈ 89.4 µg/mL) and “suitable for formulation into dosage forms for IV administration”.
For `CCn1c(-c2nonc2N)nc2c(C#CC(C)(C)O)ncc(OC[C@@H]3CN(C)CCO3)c21` [Example 8, 4-[2-(4-amino-1,2,5-oxadiazol-3-yl)-1-ethyl-7-({[(2S)-4-methyl-2-morpholinyl]methyl}oxy)-1H-imidazo[4,5-c]pyridin-4-yl]-2-methyl-3-butyn-2-ol], the solubility was 34 µM (≈ 15 µg/mL).
Consider `CCn1c(-c2nonc2N)nc2c(C#CC(C)(C)O)ncc(OC[C@@H]3CN(C)CCS3)c21` (single isomer, unassigned; enantiomer e1) [Example 7, 4-(2-(4-amino-1,2,5-oxadiazol-3-yl)-1-ethyl-7-{[(4-methyl-2-thiomorpholinyl)methyl]oxy}-1H-imidazo[4,5-c]pyridin-4-yl)-2-methyl-3-butyn-2-ol (enantiomer E1)], for which the solubility amounted to 23 µM (≈ 10.5 µg/mL).
Compound `CCn1c(-c2nonc2N)nc2c(C#CC(C)(C)O)ncc(OC[C@H]3CCCN(C)C3)c21` [Example 6, 4-[2-(4-amino-1,2,5-oxadiazol-3-yl)-1-ethyl-7-({[(3S)-1-methyl-3-piperidinyl]methyl}oxy)-1H-imidazo[4,5-c]pyridin-4-yl]-2-methyl-3-butyn-2-ol, dihydrochloride] yielded a solubility of 44 µM.
